The NIST ThermoML archive (doi:10.1021/je400879v)

Experiment: molar heat capacity at constant pressure
Settings: 101.33 kPa, Crystal

COC(=O)[C@H](Cc1ccccc1)NC(=O)[C@H](CC(C)C)NC(=O)[C@H](CCSC)NC=O [methyl formyl-L-methionyl-L-leucyl-L-phenylalaninate]
Settings	molar heat capacity at constant pressure [J/K/mol]
5 K	1.99
6.02 K	2.6
6.13 K	2.71
6.28 K	2.91
6.43 K	3.21
6.59 K	3.52
6.73 K	3.88
6.88 K	4.29
7.04 K	4.56
7.19 K	4.97
7.35 K	5.42
7.52 K	5.83
7.66 K	6.28
7.84 K	6.73
7.98 K	7.23
8.17 K	7.72
8.33 K	8.13
8.5 K	8.58
8.7 K	9.08
8.84 K	9.48
8.98 K	9.89
9.13 K	10.3
9.3 K	10.7
9.45 K	11
9.62 K	11.5
9.78 K	11.8
9.95 K	12.3
10 K	12.5
10.27 K	13.2
10.63 K	14.1
11.04 K	15
11.45 K	16
11.88 K	17.1
12.29 K	18
12.79 K	19.2
13.24 K	20.4
13.71 K	21.7
14.18 K	22.7
14.65 K	24.1
15 K	25.1
15.12 K	25.3
15.6 K	26.78
15.99 K	28
16.64 K	29.85
17.1 K	31.58
17.62 K	33.24
18.1 K	34.79
18.78 K	37.21
19.22 K	38.75
19.72 K	40.59
20 K	41.76
21.41 K	47.32
23.4 K	55.2
25 K	61.13
25.67 K	63.45
27.96 K	71.89
30 K	79.28
30.29 K	80.5
32.65 K	88.71
35.04 K	96.64
37.44 K	105
39.87 K	112.9
40 K	113.3
42.32 K	120.6
44.78 K	127.7
47.26 K	134.1
49.75 K	139.9
50 K	140.8
52.01 K	145.9
54.78 K	153.1
57.3 K	160.1
59.87 K	167.1
60 K	167.6
62.41 K	174.3
64.96 K	181.3
66.9 K	186.5
70 K	194.3
70.06 K	194.1
72.6 K	201
75.15 K	206
77.73 K	212.1
80 K	216.1
80.1 K	216.1
82.93 K	221.7
85.5 K	227
88.2 K	232.3
90 K	236.3
90.6 K	238.4
90.85 K	237.1
93.51 K	243.4
96.19 K	248.8
98.88 K	253.3
100 K	256.4
101.58 K	258.9
104.28 K	264
106.98 K	269.4
109.69 K	274.9
110 K	275.6
112.38 K	279.5
115.08 K	284.3
117.78 K	289.3
120 K	292.9
120.47 K	293.3
123.16 K	297.5
125.85 K	302.5
128.53 K	306.7
130 K	309.1
131.22 K	310.6
133.99 K	316.2
136.67 K	319.1
139.35 K	323.5
140 K	324.7
142.02 K	328.1
144.68 K	332.5
147.35 K	336.5
150 K	340.1
150.01 K	340.6
152.68 K	344.7
155.33 K	348.5
157.99 K	352.9
160 K	355.6
160.64 K	357.2
163.28 K	361.6
165.92 K	365.7
168.56 K	368.7
170 K	371.3
171.19 K	373.7
174.6 K	377.8
176.09 K	381.5
179.5 K	385.9
180 K	387.3
182.11 K	390.6
184.71 K	394.8
187.31 K	398.3
189.9 K	402.2
190 K	403.7
192.49 K	407.4
195.07 K	411.8
197.64 K	416.1
200 K	420.3
200.2 K	420
202.74 K	423.8
205.27 K	428.2
207.77 K	433.6
210 K	437.2
210.28 K	436.5
212.77 K	442.5
215.23 K	446.4
217.6 K	450.8
220 K	454.3
220.02 K	455.6
222.4 K	459.1
224.71 K	463.1
227.02 K	467.1
229.33 K	471.1
230 K	471.6
231.66 K	475.2
234 K	478.4
236.36 K	484.2
238.72 K	488
240 K	489
241.09 K	490.9
243.46 K	493.2
245.83 K	498.9
248.18 K	503
250 K	506.5
250.5 K	507.1
252.78 K	509.6
254.83 K	514.5
257.07 K	518.7
259.3 K	523.3
260 K	524.3
261.5 K	528
263.68 K	532.6
265.84 K	535.2
267.99 K	539.2
270 K	542.4
270.16 K	543.2
272.34 K	547.3
274.5 K	552.1
276.67 K	554.9
277.1 K	557.8
279.97 K	561.2
280 K	561.1
282.11 K	564.9
284.23 K	568.8
286.34 K	571.5
288.8 K	578
290 K	580.7
290.49 K	581
292.53 K	584.6
294.54 K	587.8
296.39 K	591.6
298.15 K	597.6
298.4 K	596.2
300 K	601.6
300.24 K	601.4
302.09 K	606.6
304.77 K	614.7
307.42 K	619.1
309.83 K	624.8
310 K	624.4
312.19 K	631
314.41 K	635
316.68 K	638.7
318.91 K	645.4
320 K	649.7
321.09 K	652.2
323.22 K	661.1
325.19 K	665.5
327.12 K	669.6
329.13 K	677.2
330 K	678.4
330.96 K	681.9
332.75 K	688.8
334.5 K	691.9
335.18 K	695
336.88 K	700.5
338.54 K	704.4
340 K	711.3
340.17 K	710.6
341.74 K	717
343.27 K	723.9
344 K	726
